The text below walks through data of paper PMC11557892, “Structural basis of MICAL autoinhibition” (Nature Communications, 2024).

Assay [1] deals with T1, human MICAL1 (Homo sapiens, UniProt Q8TDZ2).
T1 construct: full length M1-G1067, C-terminal 3C-His8 tag, baculovirus-infected Sf9 cells
T1 sequence (Q8TDZ2 1-1067): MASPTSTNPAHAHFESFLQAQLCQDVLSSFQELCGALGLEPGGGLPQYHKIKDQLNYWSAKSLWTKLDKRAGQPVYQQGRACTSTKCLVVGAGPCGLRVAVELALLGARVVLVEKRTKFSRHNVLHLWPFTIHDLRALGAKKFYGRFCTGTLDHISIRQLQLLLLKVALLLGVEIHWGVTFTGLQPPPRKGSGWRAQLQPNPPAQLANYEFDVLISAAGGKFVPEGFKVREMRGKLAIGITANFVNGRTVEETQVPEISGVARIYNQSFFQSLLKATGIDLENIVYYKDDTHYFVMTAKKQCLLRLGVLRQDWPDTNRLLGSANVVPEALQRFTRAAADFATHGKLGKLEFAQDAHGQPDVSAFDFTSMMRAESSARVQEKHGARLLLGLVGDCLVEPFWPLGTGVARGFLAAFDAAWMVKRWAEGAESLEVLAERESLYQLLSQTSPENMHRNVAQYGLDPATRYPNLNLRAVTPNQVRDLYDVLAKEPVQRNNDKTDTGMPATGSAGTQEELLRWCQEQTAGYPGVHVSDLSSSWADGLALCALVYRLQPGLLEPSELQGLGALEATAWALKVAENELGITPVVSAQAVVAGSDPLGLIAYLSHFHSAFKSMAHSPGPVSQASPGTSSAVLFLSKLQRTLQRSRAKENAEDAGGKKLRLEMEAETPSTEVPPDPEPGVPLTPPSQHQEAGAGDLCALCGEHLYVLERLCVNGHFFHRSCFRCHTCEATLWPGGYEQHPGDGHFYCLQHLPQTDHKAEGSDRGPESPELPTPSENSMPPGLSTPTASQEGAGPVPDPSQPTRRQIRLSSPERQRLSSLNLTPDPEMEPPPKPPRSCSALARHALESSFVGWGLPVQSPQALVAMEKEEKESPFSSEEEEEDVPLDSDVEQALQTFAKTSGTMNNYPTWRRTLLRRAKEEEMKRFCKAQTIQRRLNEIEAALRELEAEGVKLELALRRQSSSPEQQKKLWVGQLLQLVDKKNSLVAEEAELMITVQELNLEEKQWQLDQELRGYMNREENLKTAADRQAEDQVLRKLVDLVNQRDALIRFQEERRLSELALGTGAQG
The assay can be described thus: cryo-EM structure, […] Å. It is filed as binding. Particulars: oxidized state, planar isoalloxazine ring; co-purified, non-covalent; deep cavity of MO domain, stacking with Trp400; autoinhibited full-length enzyme.

The target of assay [2] is T2, human MICAL1^ΔCC (residues M1-A917) (human, UniProt Q8TDZ2 1-917).
T2 construct: human MICAL1 lacking the CC domain, residues M1-A917 (MO, L1, CH, L2, LIM, L3); also called MICAL^ΔCC; source: baculovirus-infected Sf9 cells, purified (HisTrap FF, Superdex 200)
T2 sequence (looked up): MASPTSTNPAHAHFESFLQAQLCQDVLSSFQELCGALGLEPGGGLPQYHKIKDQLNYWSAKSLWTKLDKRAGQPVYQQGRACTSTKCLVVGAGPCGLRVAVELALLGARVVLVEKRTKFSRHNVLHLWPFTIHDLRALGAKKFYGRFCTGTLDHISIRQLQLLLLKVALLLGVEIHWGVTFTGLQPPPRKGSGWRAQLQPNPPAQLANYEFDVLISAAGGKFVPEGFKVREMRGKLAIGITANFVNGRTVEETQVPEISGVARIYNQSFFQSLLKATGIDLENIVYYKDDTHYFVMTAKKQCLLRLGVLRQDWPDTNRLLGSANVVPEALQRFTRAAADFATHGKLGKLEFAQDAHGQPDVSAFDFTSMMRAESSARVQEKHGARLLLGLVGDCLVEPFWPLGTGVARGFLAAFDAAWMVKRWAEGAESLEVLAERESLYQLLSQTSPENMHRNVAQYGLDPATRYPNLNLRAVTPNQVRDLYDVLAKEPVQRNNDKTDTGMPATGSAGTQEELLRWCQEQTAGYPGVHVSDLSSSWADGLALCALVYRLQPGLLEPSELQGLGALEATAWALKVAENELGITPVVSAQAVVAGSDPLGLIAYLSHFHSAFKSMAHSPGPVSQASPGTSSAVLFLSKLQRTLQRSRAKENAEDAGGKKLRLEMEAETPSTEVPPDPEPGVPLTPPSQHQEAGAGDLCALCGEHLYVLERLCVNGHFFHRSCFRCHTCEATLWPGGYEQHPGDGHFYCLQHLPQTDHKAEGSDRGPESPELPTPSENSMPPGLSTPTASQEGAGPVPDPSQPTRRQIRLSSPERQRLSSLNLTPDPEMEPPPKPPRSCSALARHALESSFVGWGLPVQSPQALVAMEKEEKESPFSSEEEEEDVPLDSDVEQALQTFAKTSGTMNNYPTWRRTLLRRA
Put plainly: BLI; biotinylated CC domain immobilised (8.8 µg/ml) on Octet SAX biosensors, MO or MICAL1^ΔCC as analyte; 20 mM HEPES pH 7.4, 150 mM NaCl, 2 mM DTT, 2 mM MgCl2, 0.05% Tween 20, 20 °C; duplicates. Particulars: both partners purified. (In general: In BLI a coated tip is dipped into the sample, and binding shifts an interference pattern.)

By Kd is commonly meant the equilibrium constant for the complex coming apart. A low value points to tighter binding.

Regarding `Cc1cc2nc3c(=O)[nH]c(=O)nc-3n(C[C@H](O)[C@H](O)[C@H](O)COP(=O)(O)OP(=O)(O)OC[C@H]3O[C@@H](n4cnc5c(N)ncnc54)[C@H](O)[C@@H]3O)c2cc1C` [FAD], in assay [1], the “cryo-EM structure, 3.1 Å” value is listed as “A deep cavity located between these subdomains is partially occupied by the FAD cofactor”.

B1: biotinylated human MICAL1^CC (residues K918-G1067) (domain or fragment, UniProt Q8TDZ2 918-1067, looked up)
chain: KEEEMKRFCKAQTIQRRLNEIEAALRELEAEGVKLELALRRQSSSPEQQKKLWVGQLLQLVDKKNSLVAEEAELMITVQELNLEEKQWQLDQELRGYMNREENLKTAADRQAEDQVLRKLVDLVNQRDALIRFQEERRLSELALGTGAQG
modifications: biotin on the Avi tag (biotinylated in vivo)
notes: human MICAL1 coiled-coil (CC) domain, residues K918-G1067; The BLI construct; also called CC domain; coiled-coil domain; source: E. coli BL21(DE3)BirA, biotinylated in vivo, purified (HisTrap Talon, Superdex 200); not shown: Avi tag, C-terminal, kept
B1 displayed a Kd in assay [2] of 580 ± 170 nM.
